Test results as given in patent publication US20260258084A1, “New Peptides as Selective IL-23 Receptor Antagonists” (Sanofi, priority 2022, published 2026).
Converted amounts (≈) assume the structure as drawn. Read-outs that look alike come from different tables or passages of the source. Starred links: 1 amine or outer side, 2 acyl side, 3 side chain; linkers in the order of their positions; H or OH if unused. Positions of bridges follow the written chain, without caps; N, C: chain ends. Non-standard residues stand in square brackets, D forms with d. Residues, ends and D or L forms follow the SMILES beside them. *: point of attachment. X3 = CN(CCCCC(=O)N[C@@H](CS[*:2])C(=O)[*:1])[*:3]; Trp(7-Me) = Cc1cccc2c(C[C@H](N)C(=O)O)c[nH]c12; X1 = O=C(CCCCN[*:3])N[C@@H](CS[*:2])C(=O)[*:1]; αMeLys(Me2) = CN(C)CCCC[C@](C)(N)C(=O)O; X2 = CN(C)[C@@H](CCCCN[*:1])C(=O)[*:2]; 2Nal = N[C@@H](Cc1ccc2ccccc2c1)C(=O)O; AEF = NCCOc1ccc(C[C@H](N)C(=O)O)cc1; 3Pal = N[C@@H](Cc1cccnc1)C(=O)O; αMeL = CC(C)C[C@](C)(N)C(=O)O; Suc = O=C(CCC(=O)[*:2])[*:1]; Thp = NC1(C(=O)O)CCOCC1; Me2NCH2CH2 = CN(C)CC*; Aib = CC(C)(N)C(=O)O; Ava = NCCCCC(=O)O; βAla = NCCC(=O)O; Sar = CNCC(=O)O

Key:
Pepsin = system: T1, Pepsin; assay: Protease stability in simulated gastric fluid (Pepsin-SGF, FaSSGF); assay type: in vitro ADME; conditions: simulated gastric fluid with pepsin (Pepsin-SGF), 60 min, 1 μM peptide, 37° C., read-out: FaSSGF 60 (min), remaining percent of peptide
T1 construct: purchased Merck Millipore
Summary of the method: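 LCMS/MS peak areas, normalised to the time-0 sample as 100%, give percent remaining. Conditions: 37° C incubation of 1 μM final peptide in simulated gastric fluid with pepsin; ethanol/0.1% HCOOH quench at 0, 60, 120, 240 min.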

[1] = system: IL-23 induced STAT3 signaling in HEK-Blue™ IL-23 cells; assay: IL-23 induced STAT3 signaling in HEK-Blue IL-23 cells (SEAP reporter); assay type: cell-based; conditions: human IL23 0.25 ng/ml, read-out: pSTAT3
Summary of the method: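 Secreted SEAP, read at OD 620-655 nm after 45 min QUANTI-Blue development, reports STAT3 activation. Beforehand, cells were exposed to peptide dilutions for 60 min at 37 °C and then to 0.25 ng/ml final human IL-23 overnight, at 10,000 cells/well.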

[2] = Solubility testing of peptides at different pH; assay type: physicochemical; conditions: target concentration 1 mg/ml, 2 hours agitation
Summary of the method: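 Four buffers were used: 50 mM HCl pH 1.2 and 50 mM phosphate at pH 6.5, 7.4 and 9.0, each receiving dried-down compound at a 1 mg/mL target. After 2 h gentle shaking and 0.45 μm filtration, UV peak areas were compared with a DMSO standard curve of known concentration, allowing for extinction coefficients.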

[3] = Chemical stability assessment of peptides (relative purity loss); assay type: physicochemical; conditions: 24 hours at 37° C.; for Chemical stability (relative purity loss) Buffer pH 1.2: 50 mM HCl pH 1.2 + acetonitrile (1:1); for Chemical stability (relative purity loss) Buffer pH 6.5: 50 mM phosphate buffer pH 6.5 + acetonitrile (1:1); for Chemical stability (relative purity loss) Buffer pH 7.4: 50 mM phosphate buffer pH 7.4 + acetonitrile (1:1)
Summary of the method: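 Peptide solutions at 1 mg/ml (purity-corrected) in 1:1 acetonitrile with 50 mM HCl pH 1.2, or 50 mM phosphate pH 6.5 or pH 7.4, held 24 hours at 2° C. and 37° C. Supernatants analysed by UHPLC-UV; relative purity loss taken as percent drop in peak-area purity from 0 to 24 hours at 37° C.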

[4] = target: T2, human interleukin-23 receptor (recombinant human IL-23R-Fc chimera) (Homo sapiens, UniProt Q5VWK5); assay: Human ELISA IL23/IL23R (assay for specific human IL23R antagonists); assay type: binding; conditions: Table 10; read-out: Human ELISA IL23/IL23R IC50
T2 construct: Fc (IgG Fc fusion)
Summary of the method: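 Competition format: peptide dilutions compete for IL23R-Fc chimera (0.1 μg/ml final, 60 min, room temperature) binding to immobilized human IL23 coated at […] overnight at 4 °C. Read-out is fluorogenic HRP signal from goat anti-hu-IgG1 detecting captured receptor.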

[5] = 50 mM HCl buffer, 50 mM HCl pH 1.2, read-out: Solubility Buffer pH 1.2
[6] = 50 mM phosphate buffer pH 6.5, read-out: Solubility Buffer pH 6.5
[7] = 50 mM phosphate buffer pH 7.4, read-out: Solubility Buffer pH 7.4
[8] = 50 mM phosphate buffer pH 9.0, read-out: Solubility Buffer pH 9.0

remaining at 1 h, 1 µM (Pepsin)	solubility at 2 h [2, 5]	solubility at 2 h [2, 6]	solubility at 2 h [2, 7]	solubility at 2 h [2, 8]	Chemical stability (relative purity loss) Buffer pH 1.2 [3]	Chemical stability (relative purity loss) Buffer pH 6.5 [3]	Chemical stability (relative purity loss) Buffer pH 7.4 [3]	IC50 [4]	Compound	IC50 [1]
71%	≥ 1030 µg/mL	≥ 1000 µg/mL	≥ 970 µg/mL	≥ 880 µg/mL	5.6%	0.0%	0.0%	0.28 nM	CC(=O)N[C@H]1CCCCNC(=O)[C@@H]2CSSC[C@H](NC(=O)[C@H](CCC(N)=O)NC(=O)[C@H](Cc3c[nH]c4ccccc34)NC1=O)C(=O)N[C@@H](Cc1ccc(OCCN)cc1)C(=O)N[C@@H](Cc1ccc3ccccc3c1)C(=O)NC1(CCOCC1)C(=O)N[C@H](C(=O)N[C@@H](C)C(=O)NCC(N)=O)CCC(=O)N(C)CCCCC(=O)N2 [compound 17] (Ac-KWQC[AEF][2Nal][Thp]EAG-NH2; linker 1-4-8 via X3)	62 nM
72%	50 µg/mL (≈ 29.6 µM)	30 µg/mL (≈ 17.8 µM)	20 µg/mL (≈ 11.8 µM)	< 10 µg/mL	25.8%	0.6%	0.1%	0.36 nM	CC(=O)N[C@H]1CCCCNC(=O)[C@@H]2CSSC[C@H](NC(=O)[C@H](CCC(N)=O)NC(=O)[C@H](Cc3c[nH]c4ccccc34)NC1=O)C(=O)N[C@@H](Cc1ccc(OCCN)cc1)C(=O)N[C@@H](Cc1ccc3ccccc3c1)C(=O)N[C@@](C)(CC(C)C)C(=O)N[C@H](C(=O)N[C@@H](CC(N)=O)C(=O)N[C@@H](CC(N)=O)C(N)=O)CCC(=O)N(C)CCCCC(=O)N2 [compound 14] (Ac-KWQC[AEF][2Nal][αMeL]ENN-NH2; linker 1-4-8 via X3)	18.7 nM
82%	≥ 890 µg/mL	≥ 870 µg/mL	810 µg/mL (≈ 463 µM)	270 µg/mL (≈ 154 µM)	23.8%	0.0%	8.7%	0.4 nM	CC(C)C[C@]1(C)NC(=O)[C@H](Cc2ccc3ccccc3c2)NC(=O)[C@H](Cc2ccc(OCCN(C)C)cc2)NC(=O)[C@@H]2CSSC[C@H](NC(=O)CCCCNC(=O)CC[C@@H](C(=O)N[C@@H](CC(N)=O)C(=O)N[C@@H](CC(N)=O)C(N)=O)NC1=O)C(=O)N[C@@H](CC(N)=O)C(=O)N[C@@H]([C@@H](C)O)C(=O)N[C@@H](Cc1c[nH]c3ccccc13)C(=O)N[C@@H](CCC(N)=O)C(=O)N2 [compound 27] ([Ava]CNTWQCY(Me2NCH2CH2)[2Nal][αMeL]ENN-NH2; disulfide 2-7; lactam N-11)	1.71 nM
60%	10 µg/mL (≈ 6.29 µM)	< 10 µg/mL	< 10 µg/mL	< 10 µg/mL	11.4%	0.1%	0.0%	0.71 nM	CC(=O)N[C@H]1CCCCNC(=O)[C@@H]2CSSC[C@H](NC(=O)[C@H](CCC(N)=O)NC(=O)[C@H](Cc3c[nH]c4ccccc34)NC1=O)C(=O)N[C@@H](Cc1ccc(OCCN)cc1)C(=O)N[C@@H](Cc1ccc3ccccc3c1)C(=O)N[C@@](C)(CC(C)C)C(=O)N[C@H](C(=O)N[C@@H](C)C(=O)NCC(N)=O)CCC(=O)N(C)CCCCC(=O)N2 [compound 18] (Ac-KWQC[AEF][2Nal][αMeL]EAG-NH2; linker 1-4-8 via X3)	69.5 nM
69%	≥ 970 µg/mL	980 µg/mL (≈ 536 µM)	210 µg/mL (≈ 115 µM)	60 µg/mL (≈ 32.8 µM)	11.3%	0.0%	0.0%	0.26 nM	CC(=O)NCCCC[C@@H]1NC(=O)[C@H](Cc2c[nH]c3c(C)cccc23)NC(=O)[C@H]([C@@H](C)O)NC(=O)[C@H](CC(N)=O)NC(=O)[C@@H]2CSSC[C@H](NC1=O)C(=O)N[C@@H](Cc1ccc(OCCN(C)C)cc1)C(=O)N[C@@H](Cc1ccc3ccccc3c1)C(=O)N[C@@](C)(CC(C)C)C(=O)N[C@H](C(=O)N[C@@H](CC(N)=O)C(=O)N[C@@H](Cc1c[nH]cn1)C(N)=O)CCCCNC(=O)CCC(=O)N2 [compound 23] (CNT[Trp(7-Me)]K(Ac)CY(Me2NCH2CH2)[2Nal][αMeL]KNH-NH2; disulfide 1-6; linker N-10 via Suc)	3.32 nM
100%	≥ 1060 µg/mL	≥ 1040 µg/mL	≥ 990 µg/mL	≥ 1040 µg/mL	12.5%	1.3%	2.8%	0.28 nM	CC(=O)NCCCC[C@@H]1NC(=O)[C@H](Cc2c[nH]c3c(C)cccc23)NC(=O)[C@H]([C@@H](C)O)NC(=O)[C@H](CC(N)=O)NC(=O)[C@@H]2CSSC[C@H](NC1=O)C(=O)N[C@@H](Cc1ccc(OCCN(C)C)cc1)C(=O)N[C@@H](Cc1ccc3ccccc3c1)C(=O)NC(C)(C)C(=O)N[C@H](C(=O)N[C@@H](CC(N)=O)C(=O)N[C@@H](Cc1c[nH]cn1)C(=O)NCCC(N)=O)CCC(=O)NCCCCC(=O)N2 [compound 48] ([Ava]CNT[Trp(7-Me)]K(Ac)CY(Me2NCH2CH2)[2Nal][Aib]ENH[βAla]-NH2; disulfide 2-7; lactam N-11)	0.6 nM
88%	< 10 µg/mL	< 10 µg/mL	< 10 µg/mL	< 10 µg/mL	4.1%	0.1%	0.2%	1.16 nM	CC(=O)N[C@H]1CCCCNC(=O)[C@@H]2CSSC[C@H](NC(=O)[C@H](CCC(N)=O)NC(=O)[C@H](Cc3c[nH]c4ccccc34)NC1=O)C(=O)N[C@@H](Cc1ccc(OCCN)cc1)C(=O)N[C@@H](Cc1ccc3ccccc3c1)C(=O)N[C@@](C)(CC(C)C)C(=O)N[C@H](C(=O)N[C@@H](C)C(=O)N[C@H](CC(C)C)C(N)=O)CCC(=O)N(C)CCCCC(=O)N2 [compound 44] (Ac-KWQC[AEF][2Nal][αMeL]EA[dL]-NH2; linker 1-4-8 via X3)	42.5 nM
95%	≥ 1010 µg/mL	≥ 1100 µg/mL	≥ 1080 µg/mL	≥ 1150 µg/mL	2.6%	1.1%	0.9%	0.5 nM	CC(=O)NCCCC[C@@H]1NC(=O)[C@H](Cc2c[nH]c3ccccc23)NC(=O)[C@@H](N(C)C)CCCCNC(=O)[C@@H]2CSSC[C@H](NC1=O)C(=O)N[C@@H](Cc1ccc(OCCN(C)C)cc1)C(=O)N[C@@H](Cc1ccc3ccccc3c1)C(=O)N[C@@](C)(CCCCN(C)C)C(=O)N[C@H](C(=O)N[C@@H](CC(N)=O)C(=O)N[C@@H](Cc1cccnc1)C(=O)N(C)CC(N)=O)CCC(=O)NCCCCC(=O)N2 [compound 36] ([Ava]C[X2]WK(Ac)CY(Me2NCH2CH2)[2Nal][αMeLys(Me2)]EN[3Pal][Sar]-NH2; disulfide 2-6; lactam N-10)	13.9 nM
78%	740 µg/mL (≈ 474 µM)	≥ 880 µg/mL	≥ 870 µg/mL	170 µg/mL (≈ 109 µM)	10.5%	0.0%	1.0%	0.48 nM	CC(=O)N[C@H]1CCCCNC(=O)[C@@H]2CSSC[C@H](NC(=O)[C@H](CCC(N)=O)NC(=O)[C@H](Cc3c[nH]c4ccccc34)NC1=O)C(=O)N[C@@H](Cc1ccc(OCCN(C)C)cc1)C(=O)N[C@@H](Cc1ccc3ccccc3c1)C(=O)NC(C)(C)C(=O)N[C@H](C(=O)N[C@@H](C)C(=O)NCC(N)=O)CCC(=O)NCCCCC(=O)N2 [compound 32] (Ac-KWQCY(Me2NCH2CH2)[2Nal][Aib]EAG-NH2; linker 1-4-8 via X1)	20.5 nM
